# Test results as given in patent US8709804B2, “Method for drug screening and characterization by calcium flux” (Cedars-Sinai Medical Center, priority 2004, dated 2014).
# pIC50: −log10 of the molar value.
# Legend:
# AtT-20 cells [1] = experiment: Cell viability control after 45 minutes of imaging and nimodipine: calcium response to high K+ depolarization; type: cell-based, mouse; settings: 45 minutes of imaging and nimodipine treatment up to maximum dose, FIG. 4B
# Experimental: Cells were stained with Calcium Green, imaged and exposed to increasing drug doses for 45 minutes. […] First, untreated AtT-20 cells were imaged over a forty-five (45) minute time span with continuous recording at 3 fps. The amplitude of calcium oscillations was measured and plotted over time. […] The averaged oscillation amplitudes of an untreated cell sample over a fifty (50) minute interval for all cells is shown in FIG. 3B. […] As such, experiments were not recorded longer than 45 minutes.
# AtT-20 cells [2] = experiment: Dose response of spontaneous calcium oscillations by confocal Calcium Green imaging of single cells; type: cell-based, mouse
# Experimental: Sigmoidal dose response curves were fit to each individual cell and the average response over the total population was calculated.
# The treated cell samples were imaged using asymmetric imaging methods and a temporal resolution of 3 fps for up to 45 minutes total recording time. In particular, illumination (excitation) was diffraction limited while the detection (emission) was almost wide-field by opening the confocal detection pinhole but leaving the excitation pinhole closed. This allowed for increased detection efficiency, while still suppressing background fluorescence. […]
# The Attofluor cell culture chamber was placed inside a PenCon temperature controlled incubator at 37° C. mounted on a DMIRB/E inverted microscope (obtained from Leica Microsystems; Wetzlar, Germany). […] The digital temperature readout of the incubator was checked with a calibrated mercury thermometer to confirm the values within 0.2° C. […]
structure (smiles),measurement,setting,value
"COCCOC(=O)C1=C(C)NC(C)=C(C(=O)OC(C)C)C1c1cccc([N+](=O)[O-])c1 (stereo not drawn) [nimodipine, 1,4-Dihydro-2,6-dimethyl-4-(3-nitrophenyl)-3,5-pyridinedicarboxylic acid 2-methyloxyethyl 1-methylethyl ester]",Toxicity of prolonged exposure to cells,AtT-20 cells [1],non-toxic
same,pIC50,"AtT-20 cells [2]; Mus musculus, AtT20, 5 min, average over all individual cells, FIG. 5B, 5 minute interval per dose, read-out: IC50 of the averaged dose response of calcium oscillation amplitude",7.64
same,Concentration giving complete inhibition of baseline spontaneous calcium oscillations (BSCOs),"AtT-20 cells [2]; representative cell, FIG. 4C, concentration increased in 10-fold increments",100 nM
